Results taken from patent publication US6410553B1, “Benzosulfones and related compositions and methods” (Ortho-McNeil Pharmaceutical, Inc., priority 2000, dated 2002).

Each molecule was assayed against T1, calcium channel (3H-nitrendipine binding, rabbit heart membranes) (Oryctolagus cuniculus, UniProt P15381) (assay: Assay for Inhibition of Nitrendipine Binding). Conditions: 3H-nitrendipine (0.05-0.50 nM), 90 minutes at 4° C.
T1 construct: from tissue; host or cells: rabbit heart (crude membrane pellet)
T1 sequence (P15381 whole entry, other chains not shown): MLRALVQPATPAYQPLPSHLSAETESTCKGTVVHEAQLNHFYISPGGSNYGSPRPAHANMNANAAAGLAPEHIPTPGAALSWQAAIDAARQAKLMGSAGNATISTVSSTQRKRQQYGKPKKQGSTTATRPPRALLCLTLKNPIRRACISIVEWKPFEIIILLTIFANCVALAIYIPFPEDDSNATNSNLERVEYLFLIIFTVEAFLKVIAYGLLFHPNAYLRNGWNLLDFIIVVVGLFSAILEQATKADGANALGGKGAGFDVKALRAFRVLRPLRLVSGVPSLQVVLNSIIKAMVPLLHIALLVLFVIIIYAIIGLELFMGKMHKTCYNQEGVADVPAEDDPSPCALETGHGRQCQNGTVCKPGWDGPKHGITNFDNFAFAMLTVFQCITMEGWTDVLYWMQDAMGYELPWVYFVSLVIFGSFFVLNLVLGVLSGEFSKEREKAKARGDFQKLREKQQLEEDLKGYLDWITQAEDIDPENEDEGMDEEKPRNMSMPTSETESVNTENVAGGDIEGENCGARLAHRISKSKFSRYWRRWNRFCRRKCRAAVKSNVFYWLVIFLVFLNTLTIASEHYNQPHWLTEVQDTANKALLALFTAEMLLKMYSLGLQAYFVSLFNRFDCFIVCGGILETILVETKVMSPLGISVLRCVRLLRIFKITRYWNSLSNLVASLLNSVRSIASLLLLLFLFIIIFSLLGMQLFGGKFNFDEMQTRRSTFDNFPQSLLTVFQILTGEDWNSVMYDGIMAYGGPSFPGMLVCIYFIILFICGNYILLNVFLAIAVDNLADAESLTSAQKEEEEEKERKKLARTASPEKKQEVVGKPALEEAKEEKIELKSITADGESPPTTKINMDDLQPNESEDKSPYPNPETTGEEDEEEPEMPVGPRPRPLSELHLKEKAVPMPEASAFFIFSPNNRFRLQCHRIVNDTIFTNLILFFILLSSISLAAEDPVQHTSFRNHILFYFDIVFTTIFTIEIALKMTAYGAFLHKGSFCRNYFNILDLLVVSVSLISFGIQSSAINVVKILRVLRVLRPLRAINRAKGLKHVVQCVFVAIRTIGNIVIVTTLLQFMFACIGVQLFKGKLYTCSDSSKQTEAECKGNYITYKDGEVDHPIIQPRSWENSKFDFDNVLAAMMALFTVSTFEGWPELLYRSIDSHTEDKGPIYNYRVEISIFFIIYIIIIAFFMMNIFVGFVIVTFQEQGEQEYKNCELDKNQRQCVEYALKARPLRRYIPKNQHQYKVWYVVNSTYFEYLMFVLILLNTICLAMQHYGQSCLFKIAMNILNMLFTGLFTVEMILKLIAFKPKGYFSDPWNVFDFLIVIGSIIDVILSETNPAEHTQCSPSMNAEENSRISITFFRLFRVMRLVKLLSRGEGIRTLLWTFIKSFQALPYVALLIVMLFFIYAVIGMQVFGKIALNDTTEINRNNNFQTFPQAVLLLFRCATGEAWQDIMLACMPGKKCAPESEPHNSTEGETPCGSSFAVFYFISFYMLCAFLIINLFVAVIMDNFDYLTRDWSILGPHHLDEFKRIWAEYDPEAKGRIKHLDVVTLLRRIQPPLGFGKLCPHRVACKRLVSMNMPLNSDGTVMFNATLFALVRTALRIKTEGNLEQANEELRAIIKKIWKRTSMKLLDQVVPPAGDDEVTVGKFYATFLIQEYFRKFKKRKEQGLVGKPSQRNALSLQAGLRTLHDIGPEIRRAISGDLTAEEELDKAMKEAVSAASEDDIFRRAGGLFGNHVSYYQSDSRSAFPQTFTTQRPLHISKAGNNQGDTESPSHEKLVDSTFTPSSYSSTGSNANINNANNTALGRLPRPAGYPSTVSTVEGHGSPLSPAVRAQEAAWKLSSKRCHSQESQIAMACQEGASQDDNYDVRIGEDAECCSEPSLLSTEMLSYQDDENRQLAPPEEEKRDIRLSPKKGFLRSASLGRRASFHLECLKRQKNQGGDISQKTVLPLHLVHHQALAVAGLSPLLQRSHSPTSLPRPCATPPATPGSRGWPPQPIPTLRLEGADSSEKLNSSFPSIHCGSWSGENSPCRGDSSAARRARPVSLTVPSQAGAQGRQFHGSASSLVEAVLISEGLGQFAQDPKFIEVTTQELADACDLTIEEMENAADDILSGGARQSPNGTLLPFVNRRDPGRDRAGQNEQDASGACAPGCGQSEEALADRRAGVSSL
T1 sequence (P13806 27-960 partner limits assumed, other chains not shown): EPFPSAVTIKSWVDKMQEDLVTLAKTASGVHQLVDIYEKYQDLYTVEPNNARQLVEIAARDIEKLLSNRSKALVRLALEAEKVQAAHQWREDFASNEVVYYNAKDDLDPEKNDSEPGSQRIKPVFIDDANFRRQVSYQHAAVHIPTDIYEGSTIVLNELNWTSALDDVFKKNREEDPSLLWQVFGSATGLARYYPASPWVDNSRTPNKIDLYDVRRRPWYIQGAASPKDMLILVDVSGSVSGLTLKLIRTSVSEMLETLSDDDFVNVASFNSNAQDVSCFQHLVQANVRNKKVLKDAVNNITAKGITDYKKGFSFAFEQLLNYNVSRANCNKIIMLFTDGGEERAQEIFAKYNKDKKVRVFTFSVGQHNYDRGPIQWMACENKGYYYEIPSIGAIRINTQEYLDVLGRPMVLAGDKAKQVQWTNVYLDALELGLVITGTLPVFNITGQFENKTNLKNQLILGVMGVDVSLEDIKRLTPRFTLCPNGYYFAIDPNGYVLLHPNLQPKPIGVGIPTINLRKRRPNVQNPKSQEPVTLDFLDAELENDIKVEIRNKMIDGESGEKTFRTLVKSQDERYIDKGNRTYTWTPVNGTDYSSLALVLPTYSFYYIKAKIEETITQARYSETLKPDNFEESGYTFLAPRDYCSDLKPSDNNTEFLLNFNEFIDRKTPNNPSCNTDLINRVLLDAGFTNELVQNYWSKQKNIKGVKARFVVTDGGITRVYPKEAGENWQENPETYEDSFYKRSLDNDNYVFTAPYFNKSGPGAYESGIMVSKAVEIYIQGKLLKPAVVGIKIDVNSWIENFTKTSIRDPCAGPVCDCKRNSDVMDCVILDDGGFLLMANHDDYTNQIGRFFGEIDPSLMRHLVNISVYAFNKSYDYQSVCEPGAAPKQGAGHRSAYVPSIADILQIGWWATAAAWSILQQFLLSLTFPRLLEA
T1 sequence (P13806 961-1106 partner limits assumed, other chains not shown): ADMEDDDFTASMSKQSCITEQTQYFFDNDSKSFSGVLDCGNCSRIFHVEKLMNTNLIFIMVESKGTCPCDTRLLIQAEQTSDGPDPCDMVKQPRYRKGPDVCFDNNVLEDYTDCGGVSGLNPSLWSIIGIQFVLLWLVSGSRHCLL
Method: Assay for Inhibition of Nitrendipine Binding
Female, New Zealand white rabbits (1-2 kg) are sacrificed by cervical dislocation, and the heart is immediately removed, cleaned and chopped into small pieces. The tissue is homogenized in 5×times volume of 0.05M Hepes buffer, pH 7.4. The homogenate is centrifuged at 4000 g for 10 minutes, and the supernatant is re-centrifuged at 42,000×g for 90 minutes. The resulting membrane pellet is resuspended (0.7 ml/g weight) in 0.05M Hepes, pH 7.4 and stored at […] until used. Each tube of the binding assay contains ^3H-nitrendipine (0.05-0.50 nM), buffer, membranes (0.10 ml), and test compound in a total volume of 1.0 ml. After 90 minutes at 4° C., the bound nitrendipine is separated from the unbound by filtration on Whatman GF/C filters. After rinsing, the filters are dried and counted in a liquid scintillation counter.
Non-specific binding of ^3H-nitrendipine (that amount bound in the presence of excess unlabelled nitrendipine) is subtracted from the total bound to obtain specifically bound radiolabeled nitrendipine. The amount of specifically bound nitrendipine in the presence of a test compound is compared to that amount bound in the absence of a compound. A percent displacement (or inhibition) can then be calculated.

Structure (SMILES)	IC50 [nM]
CC1=C(C(=O)OCCN(C)Cc2ccccc2)C(c2ccccc2Cl)C2=C(N1)c1ccccc1CCS2(=O)=O (centres unmarked) [Compound 11, [3]Benzothiepino[1,2-b]pyridine-3-carboxylic acid, 4-(2-chlorophenyl)-1,4,6,7-tetrahydro-2-methyl-, 2-[methyl(phenylmethyl)amino]ethyl ester, 5,5-dioxide]	453
COC(=O)C1=C(C)NC2=C(C1c1c(O)cccc1Cl)S(=O)(=O)CCc1ccccc12 (centres unmarked) [Compound 9, [3]Benzothiepino[1,2-b]pyridine-3-carboxylic acid, 4-(2-chloro-6-hydroxyphenyl)-1,4,6,7-tetrahydro-2-methyl-, methyl ester, 5,5-dioxide]	1300
COC(=O)C1=C(C)NC2=C(C1c1cccc(Cl)c1)S(=O)(=O)CCc1ccccc12 (centres unmarked) [Compound 6, [3]Benzothiepino[1,2-b]pyridine-3-carboxylic acid, 4-(3-chlorophenyl)-1,4,6,7-tetrahydro-2-methyl-, methyl ester, 5,5-dioxide]	337
COC(=O)C1=C(C)NC2=C(C1c1ccccc1Cl)S(=O)(=O)CCc1ccccc12 (centres unmarked) [Compound 1, [3]Benzothiepino[1,2-b]pyridine-3-carboxylic acid, 4-(2-chlorophenyl)-1,4,6,7-tetrahydro-2-methyl-, methyl ester, 5,5-dioxide]	612
COC(=O)C1=C(C)NC2=C(C1c1ccccc1[N+](=O)[O-])S(=O)(=O)CCc1ccccc12 (centres unmarked) [Compound 5, [3]Benzothiepino[1,2-b]pyridine-3-carboxylic acid, 1,4,6,7-tetrahydro-2-methyl-4-(2-nitrophenyl)-, methyl ester, 5,5-dioxide]	1900

Molecules with a lower IC50, results first:

IC50 [nM]	Structure (SMILES)
261	COC(=O)C1=C(C)NC2=C(C1c1cccc([N+](=O)[O-])c1)S(=O)(=O)CCc1ccccc12 (centres unmarked) [Compound 8, [3]Benzothiepino[1,2-b]pyridine-3-carboxylic acid, 1,4,6,7-tetrahydro-2-methyl-4-(3-nitrophenyl)-, methyl ester, 5,5-dioxide]
261	COC(=O)C1=C(C)NC2=C(C1c1c(F)c(F)c(F)c(F)c1F)S(=O)(=O)CCc1ccccc12 (centres unmarked) [Compound 4, [3]Benzothiepino[1,2-b]pyridine-3-carboxylic acid, 1,4,6,7-tetrahydro-2-methyl-4-(pentafluorophenyl)-, methyl ester, 5,5-dioxide]
99	CC1=C(C(=O)OCCN(C)Cc2cccs2)C(c2ccccc2Cl)C2=C(N1)c1ccccc1CCS2(=O)=O (centres unmarked) [Compound 10, [3]Benzothiepino[1,2-b]pyridine-3-carboxylic acid, 4-(2-chlorophenyl)-1,4,6,7-tetrahydro-2-methyl-, 2-[methyl(2-thienylmethyl)amino]ethyl ester, 5,5-dioxide]
38	COC(=O)C1=C(C)NC2=C(C1c1cccc(Cl)c1Cl)S(=O)(=O)CCc1ccccc12 (centres unmarked) [Compound 3, [3]Benzothiepino[1,2-b]pyridine-3-carboxylic acid, 4-(2,3-dichlorophenyl)-1,4,6,7-tetrahydro-2-methyl-, methyl ester, 5,5-dioxide]
38	CC1=C(C(=O)OCCN(C)Cc2cccs2)C(c2cccc(Cl)c2Cl)C2=C(N1)c1ccccc1CCS2(=O)=O (centres unmarked) [Compound 7, [3]Benzothiepino[1,2-b]pyridine-3-carboxylic acid, 4-(2,3-dichlorophenyl)-1,4,6,7-tetrahydro-2-methyl-, 2-[methyl(2-thienylmethyl)amino]ethyl ester, 5,5-dioxide]
118	CC1=C(C(=O)OCCN(C)Cc2ccccc2)C(c2cccc(Cl)c2Cl)C2=C(N1)c1ccccc1CCS2(=O)=O (centres unmarked) [Compound 2, [3]Benzothiepino[1,2-b]pyridine-3-carboxylic acid, 4-(2,3-dichlorophenyl)-1,4,6,7-tetrahydro-2-methyl-, 2-[methyl(phenylmethyl)amino]ethyl ester, 5,5-dioxide]
